The nature of data set [1]: Pharmacokinetic evaluation in SD rats. In kind it is in vivo. The note with it: both sexes, rat, plasma, po, i.g., 2.0 mg/kg; for Vd/F: read-out: Apparent distribution volume Vz/F; for AUC(0-t): read-out: Area under curve AUC0-t; for CL/F: read-out: Clearance rate CL/F; for half-life: read-out: Half-life T½ (converted); for Cmax: read-out: Plasma concentration Cmax. As to the method:
Test Example 5: Pharmacokinetic Evaluation
SD rats were used as test animals. After intragastric (i.g.) administration of the compounds of the present disclosure to SD rats, the plasma concentrations at different time points were measured by the LC/MS/MS method. The pharmacokinetic behavior of the compounds of the present disclosure in SD rats was studied, and their pharmacokinetic profiles were evaluated.
Compound 2, compound 7, compound 21, and compound 23.
16 SD rats, of which half were male and half female, were evenly divided into 4 groups. The rats were provided by Vital River Laboratory Animal Technology Co., Ltd. The rats were fasted overnight and intragastrically administered the compounds.
2.3. Compound Solution Preparation
A certain amount of test compound was weighed out and dissolved in 5% DMSO+5% tween 80+90% normal saline to prepare a 0.2 mg/mL colorless clear solution.
The dose administered was 2.0 mg/kg, and the volume was 10.0 mL/kg.
0.1 mL blood samples were collected from the orbit before the administration and 0.25 h, 0.5 h, 1.0 h, 2.0 h, 4.0 h, 6.0 h, 8.0 h, 11.0 h and 24.0 h post-dose. The blood samples were placed into EDTA-K2 anticoagulation tubes and centrifuged at 10,000 rpm for 1 min (4° C.), and plasma was separated within 1 h and stored at −20° C. before analysis. The process from the blood collection to the centrifugation was performed in an ice bath. Access to food was given 2 h post-dose.
Measurement of plasma concentrations in SD rats after compounds were administered in different concentrations: 25 μL samples of the SD rat plasma collected at various time points post-dose were taken, and to each of the samples was added 25 μL of camptothecin (an internal standard for compound 2, 100 ng/mL) or 50 μL of tolbutamide (an internal standard for compound 7, 100 ng/mL) or 50 μL of verapamil (an internal standard for compounds 21 and 23, 100 ng/mL). Protein was precipitated with 200 μL of acetonitrile, and after 5 min of vortexing, the mixtures were centrifuged at 3700 rpm for 10 min. 120 µL of supernatant was taken and vortexed with 30 μL of water for 5 min, and a 5 μL sample was taken for LC/MS/MS analysis.

The next data set addresses human KAT6B (Homo sapiens (Human), UniProt Q8WYB5). Description: KAT6B enzyme activity assay (AlphaScreen method). The following applies: inhibition of the enzyme human KAT6B. In kind it is biochemical. The text has this: Test Example 2: KAT6B Enzyme Activity Assay (AlphaScreen Method)
I. Reagents and Instrument
• 1. KAT6B (718-1008) (ActiveMotif, 81224) • 2. Bovine serum albumin (Sangon, A500023-0100) • 3. 2 M Tris-HCl solution, pH 7.8, sterile (Sangon, B548140-0500) • 4. EDTA (0.5 M), pH 8. 0, RNase-free (Thermofisher, AiM9260G) • 5. Tween-20 (Sangon, A100777-0500) • 6. DTT, 1 M (Invitrogen, P2325) • 7. Acetyl coenzyme A (Ac-CoA, CAYMAN, Cat. No. 16160) • 8. Recombinant histone H3.1 biotinylated (human) (Active Motif 31696) • 9. 384-well plate, light gray (Perkin Elmer, Cat. No. 6007290) • 10. Anacardic acid (MCE, Cat. No. HY—N2020) • 11. AlphaScreen streptavidin donor beads, 5 mg (PerkinElmer, 6760002) • 12. AlphaScreen protein A acceptor beads, 5 mg (PerkinElmer, 6760137M) • 13. Acetylated-lysine antibody #9441 (CST 9441S) • 14. DMSO (Tansoole, G7592B) • 15. PHERA star microplate reader (BMG labtech)
a. 1× buffer 2: 50 mM Tris-HCl, pH 7.8; 0.1 mM EDTA; 0.01% v/v tween-20; 1 mM DTT; 0.01% m/v bovine serum albumin.
b. KAT6B enzyme solution: 3 nM (final concentration), prepared in buffer 2.
c. Mixed substrate of Ac-CoA and H3: a mixed substrate of 30 nM (final concentration) Ac-CoA and 30 nM (final concentration) H3, prepared in buffer 2.
d. Compounds: initial concentration of 10 mM, 4-fold dilution, 10 gradient concentrations. All compound concentrations were diluted 2500-fold with buffer 2 for later use.
e. Assay reagent: 8 ng/μL (final concentration) AlphaScreen protein A acceptor beads, 8 ng/μL AlphaScreen streptavidin donor beads, 1:1000 diluted acetylated-lysine antibody, and 100 μM anacardic acid; prepared in buffer 2.
2. Experimental Procedure
a. The prepared compound solutions were added to a 384-well plate at 2 μL/well, and 2 μL of buffer 2 (containing 0.04% DMSO) was added to each Min well and each Max well as controls. The plate was centrifuged.
b. The prepared enzyme solution was added at 2 μL/well, and 2 μL of buffer 2 was added to each Min well. The plate was centrifuged, shaken for 2 min, and incubated at room temperature for 10 min.
c. The mixed substrate of Ac-CoA and H3 was added at 4 μL/well, and the plate was centrifuged, shaken for 2 min, and incubated at room temperature for 120 min.
d. The assay reagent was added at 4 μL/well, and the plate was centrifuged, shaken for 2 min, and incubated in the dark at room temperature for 120 min.
e. Plate reading was performed on the microplate reader, and AlphaScreen counts were recorded.
f. Dose-response curves were plotted using log(inhibitor) vs. response of the graphpad prism software, with the abscissa representing the logarithm of the compound concentration and the ordinate representing the calculated enzyme activity inhibition rate, and IC50 values were calculated.
For orientation: Bead proximity is the source of the signal in Alpha formats.

Each structure is given as a SMILES string.

Sequence of human KAT6B (Q8WYB5 718-1008): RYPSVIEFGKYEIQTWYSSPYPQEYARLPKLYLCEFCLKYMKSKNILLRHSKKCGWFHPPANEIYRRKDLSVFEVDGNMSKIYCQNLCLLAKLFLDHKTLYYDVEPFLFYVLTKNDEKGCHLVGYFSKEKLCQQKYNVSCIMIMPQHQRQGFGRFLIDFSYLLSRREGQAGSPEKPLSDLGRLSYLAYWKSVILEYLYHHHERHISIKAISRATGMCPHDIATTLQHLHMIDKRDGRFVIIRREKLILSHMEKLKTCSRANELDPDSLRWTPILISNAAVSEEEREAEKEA

Regarding `CCOc1cc(C)ccc1S(=O)(=O)Nc1noc2cc(Cn3cccn3)c3c(c12)OCCC3` [Compound 7, N-(5-((1H-pyrazol-1-yl)methyl)-3,4-dihydro-2H-chromeno[8,7-d]isoxazol-9-yl)-2-ethoxy-4-methylbenzenesulfonamide], in data set [1], the Vd/F turned out to be 0.25 L/kg, the AUC(0-t) came to 81300 ng·h/mL, the CL/F came to 0.614 mL/min/kg and the half-life is 6.71 h. In data set [1], the Cmax amounted to 9200 ng/mL.

As for `COc1ccccc1S(=O)(=O)Nc1noc2cc(Cn3cccn3)c3c(c12)OCCC3` [Compound 3, N-(5-((1H-pyrazol-1-yl)methyl)-3,4-dihydro-2H-chromeno[8,7-d]isoxazol-9-yl)-2-methoxybenzenesulfonamide], half-maximal inhibition against human KAT6B (IC50) was put at 1.4 nM. This lies in the single-digit nanomolar range.

On to `COc1cccc(OC(F)(F)F)c1S(=O)(=O)Nc1noc2cc(Cn3cccn3)c3c(c12)OCC3` [Compound 23, N-(4-((1H-pyrazol-1-yl)methyl)-2,3-dihydrobenzofuro[7,6-d]isoxazol-8-yl)-2-methoxy-6-(trifluoromethoxy)benzenesulfonamide], for which, in data set [1], the Vd/F is 0.47 L/kg, the AUC(0-t) was found to be 61200 ng·h/mL, the CL/F is 0.431 mL/min/kg and the half-life was 13.7 h. For the same compound, the Cmax in data set [1] is 6240 ng/mL.

For the compound `COc1cccc(OC)c1S(=O)(=O)Nc1noc2cc(Cn3cccn3)c3c(c12)OC(F)(F)O3` [Compound 5, N-(4-((1H-pyrazol-1-yl)methyl)-2,2-difluoro-[1,3]dioxolo[4′,5′:5,6]benzo[1,2-d]isoxazol-8-yl)-2,6-dimethoxybenzenesulfonamide], 1.5 nM corresponded to half-maximal inhibition against human KAT6B (IC50).

Take `COc1cccc(OC)c1S(=O)(=O)Nc1noc2cc(Cn3cccn3)c3c(c12)OCC3` [Compound 1, N-(4-((1H-pyrazol-1-yl)methyl)-2,3-dihydrobenzofuro[7,6-d]isoxazol-8-yl)-2,6-dimethoxybenzenesulfonamide]: the midpoint of inhibition on human KAT6B, the IC50, lay at 1.1 nM.

For `COc1cccc(OC)c1S(=O)(=O)Nc1noc2cc(Cn3cccn3)c3c(c12)OCCC3` [Compound 2, N-(5-((1H-pyrazol-1-yl)methyl)-3,4-dihydro-2H-chromeno[8,7-d]isoxazol-9-yl)-2,6-dimethoxybenzenesulfonamide], in data set [1], the Vd/F was 0.202 L/kg, the AUC(0-t) was 43300 ng·h/mL, the CL/F turned out to be 0.8 mL/min/kg and the half-life was 2.96 h. For the same compound, in data set [1], the Cmax came to 8210 ng/mL. The compound also displayed an IC50 at human KAT6B of 0.7 nM.

Broadly, the half-life is the time needed for the level to fall by half in the phase considered. For orientation: IC50 means the concentration needed to halve the response being measured.

Values taken from US20250145637A1, “SULFONAMIDE DERIVATIVE, PREPARATION METHOD THEREFOR AND MEDICAL USE THEREOF” (Jiangsu Hengrui Pharmaceuticals Co. Ltd., priority 2021, published 2025).
